Results taken from patent publication US20070049564A1 (Wyeth, priority 2005, published 2007).
Converted amounts (≈) assume the structure as drawn. Read-outs that look alike come from different tables or passages of the source.

What was measured:
E. coli GC 2231 = assay: MIC, broth microdilution; conditions: Escherichia coli
E. coli GC 2235 = assay: MIC, broth microdilution; conditions: Escherichia coli
E. coli GC 2233 = assay: MIC, broth microdilution; conditions: Escherichia coli
E. coli GC 2270 = assay: MIC, broth microdilution; conditions: Escherichia coli
E. coli GC 4560 = assay: MIC, broth microdilution; conditions: Escherichia coli
E. coli GC 6465 = assay: MIC, broth microdilution; conditions: Escherichia coli
E. coli GC 1073 = assay: MIC, broth microdilution; conditions: Escherichia coli
Protocol: (§1) Antimicrobial susceptibility testing. The in vitro activities of the antibiotics are determined by the broth microdilution method as recommended by the National Committee for Clinical Laboratory Standards (NCCLS) (1). Mueller-Hinton II broth (MHBII)(BBL Cockeysville, Md.) is the medium employed in the testing procedures. Microtiter plates containing serial dilutions of each antimicrobial agent are inoculated with each organism to yield the appropriate density (10^5 CFU/ml) in a 100 μl final volume. The plates are incubated for 18-22 hours at 35° C. in ambient air.
(§2) Representative compounds were first incubated in mouse serum for an hour prior to the in vitro testing against a panel of selected gram-positive and gram-negative bacteria strains. All compounds were also pre-incubated in water for an hour prior to testing as control. Representative compounds of Formula I were incubated in human serum prior to MIC determination.

S. typhimurium GC 2172 = assay: MIC, broth microdilution; conditions: Salmonella enterica, TYPHIMURIUM
S. aureus GC 6466 = assay: MIC, broth microdilution; conditions: Staphylococcus aureus
Protocol: (§3) Antimicrobial susceptibility testing. The in vitro activities of the antibiotics are determined by the broth microdilution method as recommended by the National Committee for Clinical Laboratory Standards (NCCLS) (1). Mueller-Hinton II broth (MHBII)(BBL Cockeysville, Md.) is the medium employed in the testing procedures. Microtiter plates containing serial dilutions of each antimicrobial agent are inoculated with each organism to yield the appropriate density (10^5 CFU/ml) in a 100 μl final volume. The plates are incubated for 18-22 hours at 35° C. in ambient air. […] Standard Pharmacological Test Procedures
(§4) Presented in Tables I-XIII are representative compounds of Formula I which were evaluated against a panel of 40 selected gram-positive and gram-negative bacteria strains by pre-incubation in water, mouse serum or human serum. Representative compounds were first incubated in mouse serum for an hour prior to the in vitro testing against a panel of selected gram-positive and gram-negative bacteria strains. All compounds were also pre-incubated in water for an hour prior to testing as control. Representative compounds of Formula I were incubated in human serum prior to MIC determination.

S. aureus GC 6467 = assay: MIC, broth microdilution; conditions: Staphylococcus aureus
S. aureus GC 1079 = assay: MIC, broth microdilution; conditions: Staphylococcus aureus
S. aureus GC 4536 = assay: MIC, broth microdilution; conditions: Staphylococcus aureus
S. aureus GC 2216 = assay: MIC, broth microdilution; conditions: Staphylococcus aureus
Protocol: as §3, §4

S. aureus GC 6469 = assay: MIC, broth microdilution; conditions: Staphylococcus aureus
E. faecalis GC 2242 = assay: MIC, broth microdilution; conditions: Enterococcus faecalis
Protocol: as §1, §2

E. faecium GC 4556 = assay: MIC, broth microdilution; conditions: Enterococcus faecium
E. faecium GC 2243 = assay: MIC, broth microdilution; conditions: Enterococcus faecium
c. albicans GC 3066 = assay: MIC, broth microdilution
E. coli = assay: Range of MIC for E. coli strains; conditions: Escherichia coli
Staph. = assay: Range of MIC for Staph. strains, including MRSA; conditions: Staphylococcus aureus, MRSA

## CCCCN(CC(=O)Nc1cc(N(C)C)c2c(c1O)C(=O)C1=C(O)[C@]3(O)C(=O)C(C(N)=O)=C(O)[C@@H](N(C)C)[C@@H]3C[C@@H]1C2)C(=O)OCOC(=O)c1ccc(-c2ccccc2)cc1 [Example 21, ({[(2-{[(5aR,6aS,7S,10aS)-9-(aminocarbonyl)-4,7-bis(dimethylamino)-1,8,10a,11-tetrahydroxy-10,12-dioxo-5,5a,6,6a,7,10,10a,12-octahydrotetracen-2-yl]amino}-2-oxoethyl)(butyl)amino]carbonyl}oxy)methyl 1,1′-biphenyl-4-carboxylate]
E. coli GC 2231; GC2231, read-out: MINIMAL INHIBITORY CONCENTRATION MIC, pre-incubated in Mouse Serum
  MIC: 1 µg/mL (≈ 1.19 µM)
E. coli GC 2231; GC2231, read-out: MINIMAL INHIBITORY CONCENTRATION MIC, pre-incubated in Water
  MIC: > 64 µg/mL
E. coli GC 2235; GC2235, read-out: MINIMAL INHIBITORY CONCENTRATION MIC, pre-incubated in Mouse Serum
  MIC: 0.5 µg/mL (≈ 0.595 µM)
E. coli GC 2235; GC2235, read-out: MINIMAL INHIBITORY CONCENTRATION MIC, pre-incubated in Water
  MIC: > 64 µg/mL
E. coli GC 2233; GC2233, read-out: MINIMAL INHIBITORY CONCENTRATION MIC, pre-incubated in Mouse Serum
  MIC: 1 µg/mL (≈ 1.19 µM)
E. coli GC 2233; GC2233, read-out: MINIMAL INHIBITORY CONCENTRATION MIC, pre-incubated in Water
  MIC: > 64 µg/mL
E. coli GC 2270; GC2270, read-out: MINIMAL INHIBITORY CONCENTRATION MIC, pre-incubated in Mouse Serum
  MIC: 1 µg/mL (≈ 1.19 µM)
E. coli GC 2270; GC2270, read-out: MINIMAL INHIBITORY CONCENTRATION MIC, pre-incubated in Water
  MIC: > 64 µg/mL
E. coli GC 4560; GC4560, read-out: MINIMAL INHIBITORY CONCENTRATION MIC, pre-incubated in Mouse Serum
  MIC: 0.25 µg/mL (≈ 0.298 µM)
E. coli GC 4560; GC4560, read-out: MINIMAL INHIBITORY CONCENTRATION MIC, pre-incubated in Water
  MIC: > 64 µg/mL
E. coli GC 6465; GC6465, read-out: MINIMAL INHIBITORY CONCENTRATION MIC, pre-incubated in Mouse Serum
  MIC: 4 µg/mL (≈ 4.76 µM)
E. coli GC 6465; GC6465, read-out: MINIMAL INHIBITORY CONCENTRATION MIC, pre-incubated in Water
  MIC: > 64 µg/mL
E. coli GC 1073; GC1073, read-out: MINIMAL INHIBITORY CONCENTRATION MIC, pre-incubated in Mouse Serum
  MIC: 1 µg/mL (≈ 1.19 µM)
E. coli GC 1073; GC1073, read-out: MINIMAL INHIBITORY CONCENTRATION MIC, pre-incubated in Water
  MIC: > 64 µg/mL
S. typhimurium GC 2172; read-out: MINIMAL INHIBITORY CONCENTRATION MIC, pre-incubated in Mouse Serum
  MIC: 4 µg/mL (≈ 4.76 µM)
S. typhimurium GC 2172; read-out: MINIMAL INHIBITORY CONCENTRATION MIC, pre-incubated in Water
  MIC: > 64 µg/mL
S. aureus GC 6466; GC6466, read-out: MINIMAL INHIBITORY CONCENTRATION MIC, pre-incubated in Mouse Serum
  MIC: 1 µg/mL (≈ 1.19 µM)
S. aureus GC 6466; GC6466, read-out: MINIMAL INHIBITORY CONCENTRATION MIC, pre-incubated in Water
  MIC: 64 µg/mL (≈ 76.2 µM)
S. aureus GC 6467; GC6467, read-out: MINIMAL INHIBITORY CONCENTRATION MIC, pre-incubated in Mouse Serum
  MIC: 4 µg/mL (≈ 4.76 µM)
S. aureus GC 6467; GC6467, read-out: MINIMAL INHIBITORY CONCENTRATION MIC, pre-incubated in Water
  MIC: > 64 µg/mL
S. aureus GC 1079; GC1079, read-out: MINIMAL INHIBITORY CONCENTRATION MIC, pre-incubated in Mouse Serum
  MIC: 4 µg/mL (≈ 4.76 µM)
S. aureus GC 1079; GC1079, read-out: MINIMAL INHIBITORY CONCENTRATION MIC, pre-incubated in Water
  MIC: > 64 µg/mL
S. aureus GC 4536; GC4536, read-out: MINIMAL INHIBITORY CONCENTRATION MIC, pre-incubated in Mouse Serum
  MIC: 2 µg/mL (≈ 2.38 µM)
S. aureus GC 4536; GC4536, read-out: MINIMAL INHIBITORY CONCENTRATION MIC, pre-incubated in Water
  MIC: 32 µg/mL (≈ 38.1 µM)
S. aureus GC 2216; GC2216, read-out: MINIMAL INHIBITORY CONCENTRATION MIC, pre-incubated in Mouse Serum
  MIC: 1 µg/mL (≈ 1.19 µM)
S. aureus GC 2216; GC2216, read-out: MINIMAL INHIBITORY CONCENTRATION MIC, pre-incubated in Water
  MIC: 64 µg/mL (≈ 76.2 µM)
S. aureus GC 6469; GC6469, read-out: MINIMAL INHIBITORY CONCENTRATION MIC, pre-incubated in Mouse Serum
  MIC: 4 µg/mL (≈ 4.76 µM)
S. aureus GC 6469; GC6469, read-out: MINIMAL INHIBITORY CONCENTRATION MIC, pre-incubated in Water
  MIC: > 64 µg/mL
E. faecalis GC 2242; GC2242, read-out: MINIMAL INHIBITORY CONCENTRATION MIC, pre-incubated in Mouse Serum
  MIC: 2 µg/mL (≈ 2.38 µM)
E. faecalis GC 2242; GC2242, read-out: MINIMAL INHIBITORY CONCENTRATION MIC, pre-incubated in Water
  MIC: 32 µg/mL (≈ 38.1 µM)
E. faecium GC 4556; GC4556, read-out: MINIMAL INHIBITORY CONCENTRATION MIC, pre-incubated in Mouse Serum
  MIC: 2 µg/mL (≈ 2.38 µM)
E. faecium GC 4556; GC4556, read-out: MINIMAL INHIBITORY CONCENTRATION MIC, pre-incubated in Water
  MIC: 64 µg/mL (≈ 76.2 µM)
E. faecium GC 2243; GC2243, read-out: MINIMAL INHIBITORY CONCENTRATION MIC, pre-incubated in Mouse Serum
  MIC: 0.5 µg/mL (≈ 0.595 µM)
E. faecium GC 2243; GC2243, read-out: MINIMAL INHIBITORY CONCENTRATION MIC, pre-incubated in Water
  MIC: 8 µg/mL (≈ 9.52 µM)
c. albicans GC 3066; Candida albicans, GC3066, read-out: MINIMAL INHIBITORY CONCENTRATION MIC
  MIC: > 64 µg/mL
c. albicans GC 3066; pre-incubated in Water
  MINIMAL INHIBITORY CONCENTRATION MIC: >64 UG/ML
E. coli; 20 h, read-out: Range of MIC, E. coli (Mouse Serum)
  MIC: 0.5 to 8 µg/mL (≈ 0.595 to 9.52 µM)
E. coli; read-out: Minimum inhibitory concentration (MIC), E. coli (mouse serum)
  MIC: 0.5 to 8 µg/mL (≈ 0.595 to 9.52 µM)
E. coli; read-out: Minimum inhibitory concentration (MIC), E. coli (water)
  MIC: > 64 µg/mL
E. coli; read-out: Range of MIC, E. coli (Water)
  MIC: > 64 µg/mL
Staph.; read-out: Minimum inhibitory concentration (MIC), Staph. (mouse serum)
  MIC: 1 to 4 µg/mL (≈ 1.19 to 4.76 µM)
Staph.; read-out: Range of MIC, Staph (Mouse Serum)
  MIC: 1 to 4 µg/mL (≈ 1.19 to 4.76 µM)
